# In article PMC3235172, “Distinct Expression Profiles and Different Functions of Odorant Binding Proteins in Nilaparvata lugens Stål” (PLoS ONE, 2011):
# Like-named read-outs stand apart in the source and are kept apart here.
# How the values were obtained:
# [1] = target: NlugOBP1 (Nilaparvata lugens, UniProt B6E9U1); experiment: Competitive fluorescence binding assay (1-NPN probe) with recombinant NlugOBP1
# Protocol: (§1) The excitation wavelength was 337 nm and the emission spectrum was recorded between 370 and 460 nm by a fluorescence spectrometer (Hitachi F-7000 Fluorescence Spectrophotometer, Japan) with a 1 cm light path quartz cuvette and 10 nm slits for both excitation and emission.
# [2] = target: NlugOBP2; experiment: Competitive fluorescence binding assay (1-NPN probe) with recombinant NlugOBP2; parameters: species or system Nilaparvata lugens; conditions: protein and 1-NPN at 2 µM
# Protocol: as §1
# [3] = target: NlugOBP3 (Nilaparvata lugens, UniProt B6E9U3); experiment: Competitive fluorescence binding assay (1-NPN probe) with recombinant NlugOBP3
# NlugOBP3, sequence (B6E9U3 entry or part of it): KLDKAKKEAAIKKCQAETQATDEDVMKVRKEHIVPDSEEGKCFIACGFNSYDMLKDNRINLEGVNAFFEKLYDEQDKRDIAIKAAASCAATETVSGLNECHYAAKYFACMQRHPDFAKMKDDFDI
# Protocol: as §1
# [4] = target: NlugOBP2 (Nilaparvata lugens, UniProt B6E9U2); experiment: Competitive fluorescence binding assay (1-NPN probe) with recombinant NlugOBP2; conditions: protein and 1-NPN at 2 µM; for Ki: calculated from IC50, pH 7.4, read-out: OBP2 Ki; for IC50: displacement of 1-NPN, 50 mM Tris-HCl pH 7.4, read-out: OBP2 IC50
# NlugOBP2 (Nilaparvata lugens, UniProt B6E9U2), sequence (B6E9U2 entry or part of it): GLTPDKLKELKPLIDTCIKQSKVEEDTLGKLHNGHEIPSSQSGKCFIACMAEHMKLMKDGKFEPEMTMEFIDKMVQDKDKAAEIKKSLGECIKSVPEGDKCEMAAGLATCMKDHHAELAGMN
# Protocol: as §1
# [5] = calculated from IC50, protein and 1-NPN at 2 µM, pH 7.4, read-out: OBP1 Ki
# [6] = displacement of 1-NPN, protein and 1-NPN at 2 µM, 50 mM Tris-HCl pH 7.4, read-out: OBP1 IC50
# [7] = displacement of 1-NPN, protein and 1-NPN at 2 µM, 50 mM Tris-HCl pH 7.4, read-out: OBP3 IC50
# [8] = calculated from IC50, protein and 1-NPN at 2 µM, pH 7.4, read-out: OBP3 Ki
# NlugOBP1, sequence (B6E9U1 entry or part of it): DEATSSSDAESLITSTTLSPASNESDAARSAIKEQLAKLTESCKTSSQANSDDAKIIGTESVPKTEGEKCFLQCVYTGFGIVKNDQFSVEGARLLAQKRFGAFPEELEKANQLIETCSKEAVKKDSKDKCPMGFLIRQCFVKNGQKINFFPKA
"Ki [1, 5] [µM]","IC50 [1, 6] [µM]",Ki [4] [µM],IC50 [4] [µM],"IC50 [3, 7] [µM]",Ki ([3]; read-out: Ki with NlugOBP3) [µM],"Ki [3, 8] [µM]",Compound,IC50 [1] [µM],Ki [1] [µM],"Ki ([2]; calculated from IC50, pH 7.4, read-out: OBP2 Ki) [µM]","IC50 ([2]; displacement of 1-NPN, 50 mM Tris-HCl pH 7.4, read-out: OBP2 IC50) [µM]",IC50 [3] [µM],Ki [3] [µM]
–,–,–,–,–,–,–,"C[C@@H]1CC[C@H]2C(C)(C)[C@H]3C[C@@]12CC[C@@]3(C)O [Ligand 9, Cedrol]",30,25.6,30.1,35,19.7,14.1
16.2,19,29.1,33.9,10.1,7.2,–,"C=CC(=C)CCC=C(C)C [Ligand 33, Myrcene]",–,–,–,–,–,–
34,39.9,> 50,> 50,36.6,–,26.1,"OCCc1ccccc1 [Ligand 7, 2-phenylethanol]",–,–,–,–,–,–
> 50,> 50,> 50,> 50,> 50,–,> 50,"CC12CCC(CC1)C(C)(C)O2 [Ligand 40, Cineole]",–,–,–,–,–,–
